Test results from PubChem BioAssay AID234 (DTP/NCI, 2004).
Several values for one entry are separate records, joined by “and”; a condition that tells them apart may be missing. Identical values can stand only once. Inconclusive results are not listed.

Test system: C3AKF1 mice, hamster liver cystadenocarcinoma s.c., tumor weight T/C
Assay: NCI In Vivo Anticancer Drug Screen. Data for tumor model Cystadenocarcinoma, Liver (No. 1) (Hamster) (subcutaneous) in C3AKF1 (CHKRF1) mice
Settings: endpoint: mean tumor weight, higher = larger tumour
Experimental: The antitumor activity of compounds was measured in mice bearing transplantable tumors. Survival or tumor size were measured and the results are expressed as the measurement made in the treated group (T) divided by the measurement made in the vehicle treated control group (C). The tumor model used in this assay is Cystadenocarcinoma, Liver (No. 1) (Hamster) (subcutaneous) in C3AKF1 (CHKRF1) mice

[1] = dose: 1.25 mg/kg/injection, schedule: Q01DX010 (ip), vehicle: carboxymethylcellulose (CMC)
[2] = dose: 2.5 mg/kg/injection, schedule: Q01DX010 (ip), vehicle: carboxymethylcellulose (CMC)
[3] = dose: 15.0 mg/kg/injection, schedule: Q01DX010 (ip), vehicle: carboxymethylcellulose (CMC)
[4] = dose: 30.0 mg/kg/injection, schedule: Q01DX010 (ip), vehicle: carboxymethylcellulose (CMC)
[5] = dose: 60.0 mg/kg/injection, schedule: Q01DX010 (ip), vehicle: carboxymethylcellulose (CMC)
[6] = dose: 25.0 mg/kg/injection, schedule: Q01DX010 (ip), vehicle: carboxymethylcellulose (CMC)
[7] = dose: 50.0 mg/kg/injection, schedule: Q01DX010 (ip), vehicle: carboxymethylcellulose (CMC)

`CC1(C)N=C(N)N=C(N)N1c1cccc(Br)c1` was tested, and the T/C (dose: 4.4 mg/kg/injection, schedule: Q01DX010 (ip), vehicle: carboxymethylcellulose (CMC)) was 82 % of control and the T/C (dose: 6.6 mg/kg/injection, schedule: Q01DX010 (ip), vehicle: carboxymethylcellulose (CMC)) was 84 % of control.
For `N#C[C@@H]1C2C=CC(CC2)[C@H]1C#N`, the T/C (dose: 0.5 mg/kg/injection, schedule: Q01DX010 (ip), vehicle: carboxymethylcellulose (CMC)) was 72 % of control, the T/C (dose: 1.0 mg/kg/injection, schedule: Q01DX010 (ip), vehicle: carboxymethylcellulose (CMC)) was 68 % of control and the T/C (dose: 2.0 mg/kg/injection, schedule: Q01DX010 (ip), vehicle: carboxymethylcellulose (CMC)) was 57 % of control.
In the case of `COC(=O)/C=C\C(=O)O` (tested in a mixture with another compound), the T/C (dose: 3.5 mg/kg/injection, schedule: Q#A X020 (ip), vehicle: carboxymethylcellulose (CMC)) is reported as 105 % of control, the T/C (dose: 7.5 mg/kg/injection, schedule: Q#A X020 (ip), vehicle: carboxymethylcellulose (CMC)) is reported as 49 % of control and the T/C (dose: 15.0 mg/kg/injection, schedule: Q#A X020 (ip), vehicle: carboxymethylcellulose (CMC)) is reported as 38 % of control.
In the case of `CCOc1ccc(Nc2ncnc3nc[nH]c23)cc1CN(CCCl)CCCl`, the T/C (dose: 1.0 mg/kg/injection, schedule: Q01DX010 (ip), vehicle: saline) is reported as 78 % of control, the T/C (dose: 2.0 mg/kg/injection, schedule: Q01DX010 (ip), vehicle: saline) is reported as 99 % of control and the T/C (dose: 4.0 mg/kg/injection, schedule: Q01DX010 (ip), vehicle: saline) is reported as 98 % of control.
`O=C1C=Cc2ccc(O)cc2C1=O` was tested, and the T/C [1] was 71 % of control, the T/C [2] was 72 % of control and the T/C (dose: 5.0 mg/kg/injection, schedule: Q01DX010 (ip), vehicle: carboxymethylcellulose (CMC)) was 74 % of control. The T/C (dose: 10.0 mg/kg/injection, schedule: Q01DX010 (ip), vehicle: carboxymethylcellulose (CMC)) was 88 % of control and 89 % of control and the T/C (dose: 20.0 mg/kg/injection, schedule: Q01DX010 (ip), vehicle: carboxymethylcellulose (CMC)) was 74 % of control.
For `O=CC(O)CO` (stereo not drawn), the T/C (dose: 125.0 mg/kg/injection, schedule: Q01DX010 (ip), vehicle: carboxymethylcellulose (CMC)) was 120 % of control and the T/C (dose: 250.0 mg/kg/injection, schedule: Q01DX010 (ip), vehicle: carboxymethylcellulose (CMC)) was 108 % of control.
With `Cc1ccc(N2CCN(CCCN3CCN(c4ccc(Cl)cc4)CC3)CC2)cc1` the T/C (dose: 7.5 mg/kg/injection, schedule: Q01DX010 (ip), vehicle: carboxymethylcellulose (CMC)) was 94 % of control, the T/C [3] was 98 % of control and the T/C [4] was 94 % of control.
`CCCCn1cnc2c(SC)nc(N)nc21` was tested, and the T/C [4] was 88 % of control, the T/C [5] was 74 % of control and the T/C (dose: 115.0 mg/kg/injection, schedule: Q01DX010 (ip), vehicle: carboxymethylcellulose (CMC)) was 75 % of control.
In the case of `CC(=O)Nc1ccc(NC(=O)c2ccc([As](O)O)cc2)cc1`, the T/C [3] is reported as 60 % of control, the T/C [4] is reported as 77 % of control and the T/C [5] is reported as 92 % of control. For the same molecule, the T/C (dose: 120.0 mg/kg/injection, schedule: Q01DX010 (ip), vehicle: carboxymethylcellulose (CMC)) was 91 % of control.
In the case of `C/C=C1\CN(C)[C@H]2Cc3c([nH]c4ccccc34)[C@@H](c3cc4[nH]c5c(c4cc3OC)CCN3C[C@H]4C[C@H](CC)[C@H]3[C@@]5(C(=O)OC)C4)C[C@H]1C2C(=O)OC` (stereo partly drawn), the T/C (dose: 30.0 mg/kg/injection, schedule: Q01DX010 (ip), vehicle: water) is reported as 70 % of control.
In the case of `NC(CCSCc1ccc(N(CCCl)CCCl)cc1)C(=O)O` (stereo not drawn), the T/C (dose: 4.5 mg/kg/injection, schedule: Q01DX010 (ip), vehicle: saline) is reported as 90 % of control, the T/C (dose: 9.0 mg/kg/injection, schedule: Q01DX010 (ip), vehicle: saline) is reported as 94 % of control and the T/C (dose: 16.0 mg/kg/injection, schedule: Q01DX010 (ip), vehicle: saline) is reported as 84 % of control. The T/C (dose: 18.0 mg/kg/injection, schedule: Q01DX010 (ip), vehicle: saline) was 52 % of control, the T/C (dose: 24.0 mg/kg/injection, schedule: Q01DX010 (ip), vehicle: saline) was 63 % of control and the T/C (dose: 36.0 mg/kg/injection, schedule: Q01DX010 (ip), vehicle: saline) was 55 % of control.
For `CCN(CC)Cc1cc(Nc2c3ccccc3nc3cc(Cl)ccc23)ccc1O`, the T/C (dose: 6.25 mg/kg/injection, schedule: Q01DX010 (ip), vehicle: carboxymethylcellulose (CMC)) was 84 % of control, the T/C (dose: 12.5 mg/kg/injection, schedule: Q01DX010 (ip), vehicle: carboxymethylcellulose (CMC)) was 106 % of control and the T/C [6] was 87 % of control. The T/C [7] was 88 % of control.
`O=C(Nc1ccc(C2=NCCN2)cc1)c1ccc(C(=O)Nc2ccc(C3=NCCN3)cc2)c(Cl)c1` was tested, and the T/C (dose: 5.0 mg/kg/injection, schedule: Q01DX010 (ip), vehicle: saline) was 83 % of control, the T/C (dose: 10.0 mg/kg/injection, schedule: Q01DX010 (ip), vehicle: saline) was 114 % of control and the T/C (dose: 20.0 mg/kg/injection, schedule: Q01DX010 (ip), vehicle: saline) was 80 % of control.
With `Oc1ccc2ccccc2c1N=Nc1ccccc1` the T/C [6] was 102 % of control, the T/C [7] was 84 % of control and the T/C (dose: 100.0 mg/kg/injection, schedule: Q01DX010 (ip), vehicle: carboxymethylcellulose (CMC)) was 75 % of control. The T/C (dose: 200.0 mg/kg/injection, schedule: Q01DX010 (ip), vehicle: carboxymethylcellulose (CMC)) was 72 % of control.
`NC(=O)c1ccc(NC(=O)CCC(=O)Nc2ccc(C(N)=O)cn2)nc1` was tested, and the T/C [1] was 92 % of control and the T/C [2] was 72 % of control.
